This is an account of results in US20250241994A1, “PHARMACEUTICAL FORMULATION OF GLUCAGON-LIKE PEPTIDE -1 RECEPTOR AGONIST PEPTIDE FOR SUBLINGUAL DELIVERY” (Immunwork Inc., priority 2024, published 2025).

Converted amounts (≈) assume the structure as drawn.

Series [1] in a line: Estimated bioavailability of sublingual relative to subcutaneous delivery (blood glucose lowering at 24 h). More on the design: species or system db/db mice. The conditions noted are these: male, db/db, mouse, in vivo, bioavailability of sublingually administered GLP-1 RA-P relative to subcutaneous administration.
Source text: The term “bioavailability of GLP-1 RA-P” as used herein refers to an estimated bioavailability of a sublingually administered GLP-1 RA-P in relative to that achieved by subcutaneous injection. Accordingly, the “bioavailability of GLP-1 RA-P” is expressed as a percentage of bioavailability achieves by subcutaneous injected GLP-1 RA-P. To estimate the bioavailability of sublingual delivery in relative to subcutaneous delivery in db/db mice, the blood glucose-lowering effects of two sublingual doses of varying amounts were compared with one subcutaneous dose of a specific amount at the 24-hour time point (just before the third sublingual dose). […] By comparing the combined effect of the two sublingual doses to the subcutaneous dose, the relative bioavailability is estimated.
Further, blood glucose levels in db/db mice are highly sensitive to changes in GLP-1 RA-P drug concentrations, making glucose measurements a reliable indicator of the drug's availability in the bloodstream. In the experiments described in this study, the db/db mouse model was used to evaluate the efficiency of sublingual drug delivery, estimate bioavailability via sublingual versus subcutaneous administration, and examine the cumulative effects of repeated sublingual dosing.
For these experiments, 30 male db/db mice, aged 6 weeks and weighing 35-40 g, were used. […]
The conditions of series [2]: semaglutide: based on the known highest dosage form for subcutaneous injection; cited from earlier work.

Turning to `CC[C@H](C)[C@H](NC(=O)[C@H](CC(C)C)NC(=O)[C@H](Cc1c[nH]c2ccccc12)NC(=O)[C@H](CCC(N)=O)NC(=O)[C@@H](NC(=O)[C@H](Cc1ccccc1)NC(=O)[C@H](C)NC(=O)[C@H](CCCCNC(=O)COCCOCCNC(=O)COCCOCCNC(=O)CC[C@H](NC(=O)CCCCCCCCCCCCCCCCCCC(=O)O)C(=O)O)NC(=O)[C@H](CCC(N)=O)NC(=O)[C@H](C)NC(=O)[C@@H](NC(=O)[C@H](CCCCN)NC(=O)[C@H](CC(=O)O)NC(=O)[C@H](CC(C)C)NC(=O)C(C)(C)NC(=O)[C@@H](NC(=O)[C@H](CO)NC(=O)[C@H](Cc1ccc(O)cc1)NC(=O)[C@H](CC(=O)O)NC(=O)[C@H](CO)NC(=O)[C@@H](NC(=O)[C@H](Cc1ccccc1)NC(=O)[C@@H](NC(=O)CNC(=O)[C@H](CCC(=O)O)NC(=O)C(C)(C)NC(=O)[C@@H](N)Cc1ccc(O)cc1)[C@@H](C)O)[C@@H](C)O)[C@@H](C)CC)[C@@H](C)CC)C(C)C)C(=O)N[C@@H](C)C(=O)NCC(=O)NCC(=O)N1CCC[C@H]1C(=O)N[C@@H](CO)C(=O)N[C@@H](CO)C(=O)NCC(=O)N[C@@H](C)C(=O)N1CCC[C@H]1C(=O)N1CCC[C@H]1C(=O)N1CCC[C@H]1C(=O)N[C@@H](CO)C(N)=O` [tirzepatide], the bioavailability at 24 h in series [1] is 10%.

`CC[C@H](C)[C@H](NC(=O)[C@H](Cc1ccccc1)NC(=O)[C@H](CCC(=O)O)NC(=O)[C@H](CCCCNC(=O)COCCOCCNC(=O)COCCOCCNC(=O)CC[C@H](NC(=O)CCCCCCCCCCCCCCCCC(=O)O)C(=O)O)NC(=O)[C@H](C)NC(=O)[C@H](C)NC(=O)[C@H](CCC(N)=O)NC(=O)CNC(=O)[C@H](CCC(=O)O)NC(=O)[C@H](CC(C)C)NC(=O)[C@H](Cc1ccc(O)cc1)NC(=O)[C@H](CO)NC(=O)[C@H](CO)NC(=O)[C@@H](NC(=O)[C@H](CC(=O)O)NC(=O)[C@H](CO)NC(=O)[C@@H](NC(=O)[C@H](Cc1ccccc1)NC(=O)[C@@H](NC(=O)CNC(=O)[C@H](CCC(=O)O)NC(=O)C(C)(C)NC(=O)[C@@H](N)Cc1cnc[nH]1)[C@@H](C)O)[C@@H](C)O)C(C)C)C(=O)N[C@@H](C)C(=O)N[C@@H](Cc1c[nH]c2ccccc12)C(=O)N[C@@H](CC(C)C)C(=O)N[C@H](C(=O)N[C@@H](CCCNC(=N)N)C(=O)NCC(=O)N[C@@H](CCCNC(=N)N)C(=O)NCC(=O)O)C(C)C` [semaglutide]: the “solubility in aqueous buffer” value in series [2] is 3200 µg/mL (≈ 778 µM).
